Tested on: murine NIH 3T3 cells
Experiment: Growth inhibitory effects of prodrugs on NIH 3T3 cells in culture, with or without esterase-containing brain homogenate
Type: cell-based
Experimental: The antifolate drug methotrexate was conjugated with a variety of polar lipid carriers via specific linker moieties having specific reactive functional groups. […] The compounds were tested for their growth inhibitory effects on murine NIH 3T3 cells growing in cell culture. […] […] In a second set of experiments was included in the growth media an amount of a brain homogenate containing an enzymatically-active esterase.

CN(Cc1cnc2nc(N)nc(N)c2n1)c1ccc(C(=O)N[C@@H](CCC(=O)O)C(=O)O)cc1 [Mtx, methotrexate]
# cells/plate (drug/FBS, cells incubated 1 hour at 37° C., cell growth and survival determined 70 hours after drug addition): 0.16 × 10^6 cells/plate | # cells/plate (drug/FBS, cells incubated 2 hours at 37° C., cell growth and survival determined 72 hours after drug addition): 0.13 × 10^6 cells/plate | # cells/plate (drug/brain extract, cells incubated 1 hour at 37° C., cell growth and survival determined 70 hours after drug addition): 0.09 × 10^6 cells/plate | # cells/plate (drug/brain extract, cells incubated 2 hours at 37° C., cell growth and survival determined 72 hours after drug addition): 0.06 × 10^6 cells/plate
